Columns and labels:
[1] = test system: ciPTEC; assay: Gene expression profiling by high-throughput RT-qPCR in ciPTECs; format: cell-based, human; details: 24 h; for expression of genes related to transcription factors (general): PN149 20 µM, cisplatin 50 µM, oxaliplatin 150 µM; for HMOX1 gene expression: ROS-inducible gene; for IL-8 gene expression: marker for inflammation; for PMAIP1 gene expression: pro-apoptotic gene
Protocol: Gene expression profiles were generated using a high-throughput RT-qPCR method previously established in the institute. ciPTECs were cultivated in T25 flasks as stated before. […] RNA isolation and generation of gene expression profiles using a Fluidigm dynamic array on a BioMark™ (Rheinau, Germany) system were performed as previously described. For comparative analysis of ciPTEC with primary kidney cells, 5 × 10^5 NT cells were seeded in 10 cm dishes and cultivated for 24 h. […] Gene expression profiles in ciPTEC were generated in three independent experiments. Due to the limited amount of tissue material, gene expression analysis in primary kidney cells was performed in two independent experiments.

[2] = test system: ciPTEC; assay: Cytotoxicity by relative cell count (RCC); format: cell-based, human; details: 24 h incubation; for IC50: cell count after 48 h post-cultivation; for cell number compared to the control: 48 h post-cultivation
Protocol: The renal cell line ciPTEC (conditionally immortalized proximal tubule epithelial cells), which was purchased from Dr. Martijn Wilmer, was used in the current study. ciPTECs were cultured in DMEM-HAM’s F12 phenol red-free medium (Gibco, Thermo Fisher Scientific, Dreieich, Germany) supplemented with 10% fetal calf serum (FCS) (Invitrogen, Darmstadt, Germany), 5 µg/mL insulin, 5 µg/mL transferrin, 5 ng/mL selenium, 36 ng/mL hydrocortisone, 10 ng/mL EGF (epidermal growth factor) and 40 pg/mL tri-iodothyronine (Sigma-Aldrich, Steinheim, Germany). For maintaining the proliferation status, cells were cultured at 33 °C in a humidified atmosphere of 5% CO2 in medium supplemented with 1% penicillin/streptomycin (P/S) (Sigma-Aldrich, Steinheim, Germany). […] For comparative analysis with the data obtained with the permanent cell line ciPTEC, studies were performed with primary patient-derived renal normal tissue cells (NT), which were obtained from patients at the University Medical Center Mainz. Cells were isolated from primary renal cancer samples of patients who underwent nephrectomy at the Department of Urology, University Medical Center Mainz. The study was performed in agreement with the Declaration of Helsinki and approved by local ethics committee (No. 837.005.09, Landesärztekammer Rheinland-Pfalz, Mainz, Germany). Each patient provided informed consent. NT cells were cultivated in RPMI-1640 medium (Sigma-Aldrich, Steinheim, Germany) containing 10% FCS and 5% P/S at 37 °C in a humidified atmosphere of 5% CO2.
Toxicity was determined by relative cell count (RCC). ciPTECs were seeded in duplicates in T25 flasks and cultivated as stated before. […] Cell count was then determined using a CASY® cell counter (CASY® TTC Cell Counter & Analyzer System). The cell counts of the treated samples were normalized to the untreated control to obtain the RCC expressed as percentage. RCC was determined in three independent experiments.

[3] = test system: ciPTEC; assay: Intracellular platinum accumulation by AAS in ciPTECs; format: in vitro ADME, human; details: 2 h
Protocol: The renal cell line ciPTEC (conditionally immortalized proximal tubule epithelial cells), which was purchased from Dr. Martijn Wilmer, was used in the current study. ciPTECs were cultured in DMEM-HAM’s F12 phenol red-free medium (Gibco, Thermo Fisher Scientific, Dreieich, Germany) supplemented with 10% fetal calf serum (FCS) (Invitrogen, Darmstadt, Germany), 5 µg/mL insulin, 5 µg/mL transferrin, 5 ng/mL selenium, 36 ng/mL hydrocortisone, 10 ng/mL EGF (epidermal growth factor) and 40 pg/mL tri-iodothyronine (Sigma-Aldrich, Steinheim, Germany). For maintaining the proliferation status, cells were cultured at 33 °C in a humidified atmosphere of 5% CO2 in medium supplemented with 1% penicillin/streptomycin (P/S) (Sigma-Aldrich, Steinheim, Germany). […]
Atomic absorption spectroscopy (AAS) was used to determine the intracellular accumulation after treatment with the platinum compounds. ciPTECs were seeded in T75 flasks and cultivated as stated before. […] Cells were then harvested via centrifugation and total cell count was determined. […] The residue was dissolved in 0.2% HNO3 and platinum amount was analyzed at a wavelength of […] in a graphite furnace using a PinAAcle 900 T (Perkin Elmer, Waltham, MA, USA). […] Intracellular accumulation was determined in three independent experiments and was calculated as ng Pt/10^6 cells.

[4] = test system: organic cation transporter 2 (OCT2); set-up: method as in PMID 17582384, PMID 21144842; details: cited from earlier work
[5] = test system: testicular germ cell tumors; set-up: method as in PMID 12835671; details: combination therapy against testicular germ cell tumors ref 2; cited from earlier work
[6] = test system: ciPTECs; set-up: method as in PMID 26821801; details: ciPTECs treated with cisplatin for 24 h, MTT assay ref 45; read-out: TC50 (≡ IC50); cited from earlier work
[7] = test system: MATE1; details: cited from earlier work
[8] = Anti-oxidant capacity: fluorescein consumption induced by AAPH-derived peroxyl radicals; details: for effect on consumption of fluorescein: fluorescein 10 µM, AAPH 50 mM, phosphate buffer pH 7.4, 37 °C, cisplatin 10 µM, PN149 10, 25, 50 µM
Protocol: The influence of PN149 on the rates of the reaction of fluorescein with free radicals generated by the azo initiator 2,2′-azobis(2-amidinopropane) dihydrochloride (AAPH) was studied according to [35] in phosphate buffer (PB, 50 mM, pH 7.4) by measuring the decay of the probe at 494 nm with absorption spectrophotometer Specord UV–Vis equipped with a thermostated cell maintained at 37 °C. […] The lag phase of the reaction means no changes in the optical density of the reaction mixture. AAPH and fluorescein were purchased from Sigma-Aldrich, JM216 [e-ammine-d-(cyclohexylamine)-a,f-bis(acetato)-b,c-dichloroplatinum(IV)] was obtained as described in [36].

[9] = test system: MATE2-K; details: cited from earlier work
[10] = test system: primary patient-derived renal normal tissue cells (NT); assay: Gene expression profiling by high-throughput RT-qPCR in primary renal normal tissue cells; format: cell-based, human; details: normal tissue (primary kidney cells), 20 µM cisplatin, 24 h
Protocol: The renal cell line […] (conditionally immortalized proximal tubule epithelial cells), which was purchased from Dr. Martijn Wilmer, was used in the current study. […] For maintaining the proliferation status, cells were cultured at 33 °C in a humidified atmosphere of 5% CO2 in medium supplemented with 1% penicillin/streptomycin (P/S) (Sigma-Aldrich, Steinheim, Germany). For the experiments, […] were seeded at a density of 55,000 cells/cm^2 in cell culture flasks and were cultivated for 24 h at 33 °C. After 24 h, cells were transferred to 37 °C for maturation, while the medium was refreshed with medium containing no P/S. Cells were kept at 37 °C for 7 days while the medium was replaced every 2-3 days. For comparative analysis with the data obtained with the permanent cell line […], studies were performed with primary patient-derived renal normal tissue cells (NT), which were obtained from patients at the University Medical Center Mainz. Cells were isolated from primary renal cancer samples of patients who underwent nephrectomy at the Department of Urology, University Medical Center Mainz. The study was performed in agreement with the Declaration of Helsinki and approved by local ethics committee (No. 837.005.09, […]-Pfalz, Mainz, Germany). Each patient provided informed consent. […]

Row | Compound | NFKB2 gene expression [1] | expression of genes related to transcription factors (general) [1] | HMOX1 gene expression [1] | IL-8 gene expression [1] | PMAIP1 gene expression [1] | IC50 [2] | ng Pt/10^6 Cells (platinum accumulation) ([3]; 300 µM carboplatin) | uptake via / affinity to OCT2 [4] | cure rates [5] | expression of DNA repair-related genes ([1]; 20 µM cisplatin) | IC50 [6] | affinity for MATE1 [7] | cell number compared to the control ([2]; 50 µM) | effect on consumption of fluorescein [8] | affinity for MATE2-K [9] | expression of DNA repair-related genes [10] | kinetics of fluorescein consumption ([8]; JM216 10 M as printed, data not shown) | ng Pt/10^6 Cells (platinum accumulation) ([3]; 50 µM) | HSPA1A gene expression ([1]; heat-shock sensitive gene) | cell number compared to the control ([2]; concentration not stated (Figure 2A))
1 | N.N.O=C([O-])C1(C(=O)[O-])CCC1.[Pt+2] [Carboplatin] | repressed transcript levels | no general down-regulation | strongly induced | repressed gene expression | strong concentration-dependent increase | 175 µM | 18 ± 2 ng Pt/10^6 cells | no affinity to this transporter |  |  |  |  |  |  |  |  |  |  |  | 
2 | N.N.[Cl][Pt][Cl] [Cisplatin] | slightly enhanced | strong down-regulation of gene transcripts | slightly lesser effects | increased transcript levels | strong concentration-dependent increase | 13 µM |  |  | over 80% | increased expression of several repair-related genes | 34 µM | only low affinity for MATE1 | less than 10% | only slightly slowed down the consumption of fluorescein | no affinity for MATE2-K | reduced transcript levels |  |  |  | 
3 | CC(=O)[O-].CC(=O)[O-].N.NC1CCCCC1.[Cl-].[Cl-].[Pt+4] [JM216, e-ammine-d-(cyclohexylamine)-a,f-bis(acetato)-b,c-dichloroplatinum(IV)] |  |  |  |  |  |  |  |  |  |  |  |  |  |  |  |  | practically coincided with curve 2 for cisplatin |  |  | 
4 | O=C1[O][Pt]2([NH][C@@H]3CCCC[C@H]3[NH]2)[O]C1=O [Oxaliplatin] | slightly enhanced | widespread gene repression was restricted to the highest concentration used | slightly lesser effects | increased transcript levels | strong concentration-dependent increase | 51 µM |  |  |  |  |  | substrate for both MATE1 and MATE2-K |  |  |  |  |  | 11 ± 2 ng Pt/10^6 cells |  | 
5 | e-ammine-d-(3-amino-2,2,5,5-tetramethylpyrrolidine-1-oxyl)-a,f-bis(butanoato)-b,c-dichloro-platinum(IV) [PN149] | repressed transcript levels | widespread gene repression | strongly induced | repressed gene expression | peaked at 20 µM | 6 µM |  |  |  |  |  |  |  | effectively inhibited the consumption of fluorescein |  |  |  |  | strong concentration-dependent increase | less than 5%

Reference: PMC8394219, “In Vitro Nephrotoxicity Studies of Established and Experimental Platinum-Based Compounds” (Biomedicines, 2021)
